What was measured:
[1] = Acute toxicity in C57BL/6J mice; settings: male, mouse, in vivo, ip; C57BL/6J mice, intraperitoneal, 14 days survival
Protocol: (§1) Six-weeks old C57BL/6J male mice were purchased from Guangzhou Southern Medical University Experimental Animal Technology Development Co. The mice were administered intraperitoneally NP1192 (100, 500, 1000 mg/kg). The survival of mice was monitored for 14 days, consecutively.

C57BL/6J mice = test: Acute toxicity in C57BL/6J mice; settings: mouse, in vivo, 1000 mg/kg
Protocol: as §1

[2] = system: CD8+ TILs, M2 macrophages, MDSCs and Treg cells in U14 xenograft tumors; settings: Figure 7A
Protocol: After the mice were euthanized, the tumor and peritumoral tissues were analyzed with an immunoflow kit (BioLegend, USA). The antibodies used for immunoflow cytometry included antihuman/mouse antibodies specific for CD11b-BV711, F4/80-AF647, CD206-PE, CD86-BV605, CD4-CD4-FITC IL-17-17-CY7/CY7, CD25-PE, FOXP3-AF647, CD4-BV605, CD45-PE/CY7, CD11b-BV711 and LY-6G/LY-6C-BV421 (BioLegend catalog no. 321239, RRID:AB_2860843). All data analyses were performed via GraphPad Prism 9, and the data are presented as the mean ± SEMs.

HIF-1α = HIF-1α protein level in SiHa cells, Western blot; assay type: cell-based, human; settings: 36 h
Protocol: RIPA lysis buffer (Beyotime, China) mixed with 1% protease inhibitor (Sigma, US) was added to the cells, and a sample of total protein was obtained and then loaded onto an 8% or 12% polyacrylamide gel. The gel was placed in a buffer solution, and an electric current was applied. The separated proteins were subsequently transferred from the gel onto a PVDF membrane. Next, the membrane was blocked with 5% milk for 1 h to prevent nonspecific antibody binding. The membranes were subsequently incubated with anti-NAT10 (1:1000, Abcam, USA), anti-PD-L1 (1:1000, Proteintech, China), anti-HIF-1α (1:1000, Abmart, China), and anti-β-tubulin (1:1000, Proteintech, China) primary antibodies for 12 h. Afterward, the membrane was sequentially washed with 1× TBST and incubated for 1 h with an antimouse secondary antibody (1:6000, Elabscience, China) or antirabbit secondary antibody (1:6000, Elabscience, China). The target proteins were detected via chemiluminescence with a ChemiDoc MP Imaging System (Bio-Rad, US).

HFF-1 cells = test: Cytotoxicity in nonmalignant HFF-1 cells; assay type: cell-based, human; settings: HFF-1 cells with low NAT10 expression
[3] = system: CD8+ T cells cocultured with U14 cells; settings: Figure 7B, coculture with U14 cells, 36 h
Protocol: Fresh CD8^+ T cells were extracted according to the instructions of the kit. The day before the CD8^+ T cells were extracted, the antimouse CD3 antibody was diluted to 5 μg/mL with sterile PBS, and the diluted antibody was added to a 24-well plate and incubated overnight at 4 °C. (Before the antibody was added to the plate, the plate was rinsed with sterile PBS 2–3 times to avoid dry wells). The plate incubated the previous day was removed from the 4 °C refrigerator on the second day, and the coating solution was discarded, followed by washing with sterile PBS 3 times. Amplification culture medium consisting of DMEM + 10% serum + 5 μg/mL antimouse CD28 + IL-2 was prepared. The cell lines used for culture were maintained in the logarithmic growth phase (70–80% confluence). Cell counting was performed, and CCa cells were seeded in a 12-well plate (10^5 cells/well) and cultured until adherence. T cells were mixed with tumor cells at different effector-to-target ratios (1:10) and then incubated with different drugs for 24 h. Flow cytometry experiments were then performed to detect the CD8^+ T-cell subtypes.

SiHa cells = test: Transwell invasion assay in SiHa cells; assay type: cell-based, human; settings: pretreated 20 μM 36 h, 12 h
Protocol: The Transwell chamber was assembled by coating the porous membrane insert in the top compartment with Matrigel to form a layer of extracellular matrix (ECM), and the top compartment was placed into a cell culture plate. NAT10^± SiHa cells and SiHa cells treated with DMSO, Remodelin or NP1192 for 36 h were collected and resuspended in serum-free medium at a density of 10,000 cells/200 μL of medium. Then, the cell suspension was added to the top compartment of the Transwell chamber, and the plate was placed in the incubator for 12 h. After incubation, the cells on the bottom surface of the membrane were fixed and stained. The cells were visualized under a microscope, and the number of cells that migrated through the membrane was determined via ImageJ software.

[4] = system: U14 cells subcutaneous xenograft; test: U14 subcutaneous xenograft model in C57BL/6J mice; assay type: in vivo
Protocol: U14 cells (1 × 10^7 cells per mouse, approximately 100–150 μL of cell suspension) were implanted subcutaneously into the lateral lower dorsal surface of each mouse. The tumors were allowed to grow for 7 days, and the mice were then administered one of five treatments (group 1: U14 cells + DMSO; group 2: U14 cells + Remodelin; group 3: U14 cells + anti-PD-L1 antibody; group 4: U14 cells + NP1192; group 5: U14 cells + anti-PD-L1 antibody + NP1192). Each group of mice was assigned according to the principles of randomization and the blinding method. Tumors were measured every 2 days, and tumor volume was calculated via the following equation: volume = (width)^2 × length/2. Remodelin and NP1192 were injected into the peritumoral area every 2 days at a dose of 25 mg/kg, and the in vivo antimouse PD-L1 antibody (low endotoxin) was injected every 3 days at a dose of 2.5 mg/kg.
A lentiviral vector expressing firefly luciferase was transduced into the U14 cells. After puromycin selection and cell expansion, U14 cells with stable firefly luciferase expression were generated. C57BL/6J mice were randomly divided into the following 5 groups for further experiments: group 1, U14 cells + DMSO; group 2, U14 cells + Remodelin; group 3, U14 cells + anti-PD-L1 antibody; group 4, U14 cells + NP1192; and group 5, U14 cells + anti-PD-L1 antibody + NP1192. After tumor stabilization, the luciferase substrate was injected into the mice every 2 days, and fluorescence values were obtained via a Maestro in vivo imaging system.

[5] = system: glioblastoma (GBM) patient-derived organoids; test: ATP-based viability assay in patient-derived organoids, GBM; assay type: cell-based; settings: Homo sapiens, GBM PDOs, read-out: IC50, organoid viability
Protocol: Organoid culture was performed according to previously established protocols. Briefly, we procured patient-derived tissue samples provided and technically manipulated by Accurate International Biotechnology Co., Ltd. Subsequently, these samples were subjected to mechanical and enzymatic dissociation to disaggregate the tissue into single cells or small clusters, while preserving cellular integrity. Following this initial step, the isolated cells or tissue fragments were embedded within a 3D ECM scaffold, such as Matrigel or collagen. The ECM scaffold served as a supportive substrate, promoting cellular self-organization and mimicking native tissue architecture. Additionally, a precisely formulated cocktail of growth factors, cytokines, and signaling molecules tailored to the specific tissue of interest was meticulously formulated and added to the culture medium to facilitate organoid growth and maintenance.

## N#Cc1ccc(-c2csc(N(CCCCCCC(=O)N3CCN(c4cccc5c4C(=O)N(C4CCC(=O)NC4=O)C5=O)CC3)N=C3CCCC3)n2)cc1 (centres unmarked) [NP1192]
[1]
  LD50 at 14 days: > 1000 mg/kg
C57BL/6J mice
  tolerability in acute toxicity test: well-tolerated
[2]; CD4+CD25+FOXP3+
  Treg gate: 0.00%
[2]; CD11b+F4/80+CD206+
  M2 (M2 macrophages gate): 8.10%
[2]; CD11b+LY-6G+
  MDSC gate: 4.96%
[2]; tumors after treatment
  CD8+ (CD8+ TILs gate): 4.30%
HIF-1α
  HIF-1α protein levels: decreased HIF-1α protein levels
HFF-1 cells
  cytotoxicity in nonmalignant cells: minimal cytotoxicity
[3]
  Teff cells, IFN-γ gate (lower row): 7.75%
SiHa cells
  cell invasion: substantially hindered CCa cell invasion
[4]; 25 mg/kg every 2 days, compared to DMSO or Remodelin
  tumor volume: significantly reduced tumor volume
[4]; U14 xenograft mice, 25 mg/kg
  weight loss or systemic toxicity: did not cause significant weight loss or systemic toxicity
[4]; xenograft tumors after treatment for 1 week
  reduction in tumor lactate levels: more than 40%
[5]
  IC50: 13.8 µM

From PMC12670317, “Targeted NAT10 Degradation by PROTAC NP1192 Suppresses Hypoxia-Adaptive Glycolysis and Reinvigorates CD8^+ Effector T‑Cell Function for Synergistic Cancer Immunotherapy” (ACS Central Science, 2025)
